In US20250009698A1, “NERVONIC ACID-BASED COMPOSITIONS AND METHODS” (REGENTS OF THE UNIVERSITY OF MINNESOTA, priority 2023, published 2025):
“Also recorded” adds a separate entry of the source.

Legend:
[1] = test system: Human dermal AMN fibroblasts (GM17819); test: Imaging study of oxidative stress (CELLROX, MITOSOX); type: cell-based; details: five days, compared to vehicle and control
Description: A second set of in vitro experiments were conducted to more thoroughly understand the mechanism of action of nervonic acid in the mitochondria of ALD cells. AMN patient derived fibroblasts were treated with various concentrations of NA (5 μM, 20 μM, and 50 μM in ethanol) and evaluated for mitochondrial oxidative stress by evaluating reactive oxygen species (see Example) and mitochondrial respiration (see Example). FIG. 9 and FIG. 11 show images of the NA AMN treated cells stained for reactive oxygen species (green) or mitochondrial superoxide (red) and nuclei (blue; see Imaging Study in Example). FIG. 10 and FIG. 12 show bar graphs quantifying the reactive oxygen species fluorescence of FIG. 9 and the mitochondrial superoxide fluorescence of FIG. 11.
Human dermal fibroblasts (GM17819) were seeded on chamber slides with a density of 12,500 cells per well and incubated at 37° C. At ˜80% confluence, cells were treated with ethanol (vehicle, <0.1%) and NA (5 μM, 20 μM, or 50 μM) for five days. Untreated AMN fibroblasts were considered the control group. […] Cell localization and fluorescence visualization were then completed using a fluorescence microscope (BZ-X810; Keyence, Osaka, Japan). […]

[2] = test system: ALD patient-derived fibroblasts; details: earlier studies; cited from earlier work
AMN and cALD cells = test: Fatty acid levels in ALD cells treated with NA or EA; type: cell-based, human; details: 0, 5, 20, 50 μM
Description: (§1) In vitro and in vivo experiments were done to evaluate the ability of nervonic acid to modulate ALD associated biochemistry in various ALD phenotypes including childhood cerebral ALD (cALD) and adrenomyeloneuropathy (AMN). Nervonic acid (NA) was compared to the erucic acid (EA), the active ingredient in Lorenzo's oil. […] Additionally, the potential of NA and EA to alter the basal energy production measured as ATP content in ALD cells was assessed (Terluk et al., Neurotherapeutics 2022 April; 19(3):1007-1017. doi: 10.1007/s13311-022-01226-7). Following a five-day treatment with NA, cellular ATP content was increased in cALD cells (FIG. 6).

AMN cells = test: Long chain fatty acid (LCFA) oxidation stress test with UK5099, BPTES, etomoxir; type: cell-based, human; details: 20 μM NA, 24 h, with inhibitors UK, BP, ETO alone or combined
Description: A long chain fatty acid (LCFA) oxidation stress test (SEAHORSE XF assay; Agilent Technologies, Inc., Santa Clara, CA) was used to assess how NA affects mitochondrial respiration when various metabolic pathways of mitochondria are inhibited. Specific inhibitors to block glucose, fatty acid or glutamine pathways were used alone or in combination to understand the substrate specific effects of NA. In this assay the mitochondrial stress test (MST) is repeated with one or more inhibitors of glycolysis, the TCA cycle, electron transport, and oxidative phosphorylation pathways are present. Etomoxir (Eto) is used to inhibit carnitine palmitoyl transferase 1a (CPT1a), an enzyme important in the mechanism for beta oxidation (degradation) of long chain fatty acids. UK5099 (UK) is used to inhibit transport of glucose and/or pyruvate by targeting the mitochondrial pyruvate carrier (MPC). BPTES (BP) is used to inhibit glutaminase GLS1, an enzyme that converts glutamine into glutamate, a substrate for further oxidation in the TCA cycle. AMN cells were incubated with one or more of the inhibitors with or without 20 μM NA and run through the mitochondrial stress test. The results are shown in FIG. 17, FIG. 18, and FIG. 19.

AMN cells (GM17819) = test: Seahorse cell mitochondrial stress test (MST), oxygen consumption rate; type: cell-based, human; details: 5, 20, 50 μM NA, 24 hours
Description: Mitochondrial function was assessed using a cell mitochondrial stress test (MST; see Seahorse study in the Example). As depicted in FIG. 8, in this experiment, inhibitors of various electron transport chain components (oligomycin; FCCP/carbonyl cyanide 4-(trifluoromethoxy)phenylhydrazone; rotenone and antimycin A) are sequentially incubated with cells and the oxygen consumption rate (OCR) measured following each incubation to evaluate various individual parameters of respiration. The OCR of cells that were treated with NA was compared with cells not treated with NA. FIG. 13A-13, FIG. 14A-B, FIG. 15A-B, and FIG. 16A-B are plots showing the results of the respiration test.
Mitochondrial function was assessed on AMN cells (GM17819) using the Cell Mito Stress Test (CMST) in an XFe96 Extracellular Flux Analyzer (Agilent Technologies, Inc., Santa Clara, CA). Cells (1.25×10^4 cells/well) were seeded overnight on Cell-Tak coated XFe96 microplate and then treated with NA (5 μM, 20 μM, or 50 μM) for 24 hours. For the CMST measurements, the culture medium was replaced with XF DMEM medium supplemented with glutamine 4 mM, sodium pyruvate 1 mM, and glucose 24.9 mM, pH 7.4 and 37° C. Oxygen consumption rate (OCR) was detected at baseline and after the following injections: 1) oligomycin (3 μM), 2) carbonyl cyanide 4-(trifluoromethoxy)phenylhydrazone/FCCP (2 μM), and 3) rotenone (1 μM) plus antimycin A (1 μM). This protocol allowed the analysis of the following parameters: basal respiration, ATP production, proton leak, maximal respiration, spare respiratory capacity, non-mito respiration, coupling efficiency percent, and spare respiratory capacity percent. OCR data were normalized by the number of cells determined by using CyQUANT NF Cell Proliferation Assay Kit (Thermo Fisher Scientific, Inc., Waltham, MA) and a fluorescence microplate reader. OCR results were generated by SEAHORSE WAVE PRO (Agilent Technologies, Inc., Santa Clara, CA) and analyzed with the SEAHORSE Analytics software (Agilent Technologies, Inc., Santa Clara, CA).

[3] = test system: ALD cells (cALD and AMN cells); test: Basal energy production measured as ATP content in ALD cells; type: cell-based, human
Description: as §1

ALD double knockout mice = test: In vivo mouse study, four-week NA or EA diet, fatty acids in plasma and tissues; details: for C26:0 in tissues, 3% NA group versus 3% EA group: comparison of 3% NA and 3% EA treatment groups
Description: An in vivo ALD double knockout mice model was used to evaluate the effect of NA or EA on various fatty acid concentrations in the tissue of the mice see Example). Mice were fed a diet containing 0.6% NA, 3% NA, or 3% EA for four weeks (FIG. 20). Blood samples taken every week and tissues harvested after four weeks of treatment were analyzed for fatty acid concentration.
Double ALD knockout mice were grown to eight weeks. At eight week the mice were split into four treatment groups. Three of the treatment groups received nervonic acid (NA, 0.6% or 3%) or erucic acid (EA, 3%) through their daily diet. Specifically, mice were fed with rodent chow (TEKLAD Rodent Chow available from Inotiv in West Lafayette, IN) mixed with the desired amount of NA or EA. Food was available continuously and new food was added every other day. Daily food intake was weighed and mouse weighed every week. Blood samples were taken weekly for four weeks. Following four weeks, the mice were sacrificed, and their tissues analyzed for fatty acid content. GCMS was used for lipid fatty acid content analysis and LC-MS/MS was used to analyze Lyso-PC.

[4] = Pharmacokinetics of NA study, single oral dose; type: in vivo, mouse; details: male, ALD gene-knockout (ABCD1-), mouse, in vivo; single oral 10 mg; plasma; NCA
Description: (§2) Pharmacokinetic studies were conducted to determine the key pharmacokinetic parameters of NA in an ALD mouse model and assess alterations in plasma C26:0 levels following single-dose NA administration. The pharmacokinetic parameters of NA were defined for the first time in rodents (FIG. 35-39). […] The concentrations of NA in the brain (FIG. 37) and in the liver (FIG. 38) were determined.
(§3) Pharmacokinetic studies were conducted using 12-week-old male ALD gene-knockout mice (KO; ABCD1-) following a single oral administration of 10 mg of NA. Blood samples were collected from the submandibular vein prior to dosing and at 0.25, 0.5, 1, 2, 6, 18, 24, 30, 48, 72, and 168 hours post-administration. The concentrations of NA in plasma and tissues were analyzed at the Kennedy Krieger Institute using GC/MS. Pharmacokinetic parameters including systemic clearance (CL/F), volumes of distribution (V/F), elimination half-life (ti/2), and the area under the curve (AUC) were estimated using PHOENIX (Certara USA, Radnor, PA) with non-compartmental analysis (NCA).

[5] = test system: ALD gene-knockout mice (KO; ABCD1-); test: Pharmacokinetics of NA study, single oral dose; type: in vivo, mouse
Description: as §2, §3

[6] = cited from earlier work
ELOVL1 = target: T1, ELOVL1 (Homo sapiens, UniProt Q9BW60); details: earlier studies; cited from earlier work
T1 sequence (Q9BW60 1-279): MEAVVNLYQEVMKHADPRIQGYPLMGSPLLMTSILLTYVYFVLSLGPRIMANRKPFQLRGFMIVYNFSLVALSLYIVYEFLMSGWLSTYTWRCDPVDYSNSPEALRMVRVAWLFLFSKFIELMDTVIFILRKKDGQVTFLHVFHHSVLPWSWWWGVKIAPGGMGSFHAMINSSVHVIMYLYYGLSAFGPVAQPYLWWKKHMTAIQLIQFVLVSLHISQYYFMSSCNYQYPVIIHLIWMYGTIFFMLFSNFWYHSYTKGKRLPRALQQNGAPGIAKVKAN

[7] = preliminary animal studies; cited from earlier work

CCCCCCCC/C=C\CCCCCCCCCCCCCC(=O)O [NA, Nervonic acid]
mitochondrial superoxide (MITOSOX fluorescence) ([1]; 5 μM or 20 μM): decrease | reactive oxygen species (CELLROX fluorescence) ([1]; 5 μM, 20 μM, or 50 μM): decrease | accumulation of C26:0 [2]: biochemically reverse | amount of C26:0 fatty acid (AMN and cALD cells): dose-dependent effect on decreasing | acute response (AMN cells): No significant change | basal respiration (AMN cells): No significant change | maximal respiration (AMN cells): No significant change | ATP production (AMN cells (GM17819)): increase | basal respiration (AMN cells (GM17819)): increase | maximal respiration (AMN cells (GM17819)): increase | spare respiratory capacity (AMN cells (GM17819)): increase | cellular ATP content ([3]; cALD cells, five-day treatment): increased | cellular ATP content at other concentrations ([3]; concentrations other than 20 μM, cALD and AMN cells): a trend was observed | plasma C26:0 Lyso-phosphatidylcholine (C26:0 LPC) (ALD double knockout mice; after 4-week treatment, dose-dependent manner): significantly reduced | C24:1 levels in liver, kidney, heart, and adrenal gland (ALD double knockout mice; compared to control group, NA diet, four weeks): significant elevation | C26:0 in tissues, 3% NA group versus 3% EA group (ALD double knockout mice): no significant difference; also recorded: comparable | plasma C26:0 (ALD double knockout mice; diet 0.6% or 3% NA): dose dependent decrease | NA level in plasma at steady state (ALD double knockout mice; following four-week treatment): approximately 70 pig/mL | C26:1 levels in plasma (ALD double knockout mice; intake of NA): significant increase | C26:0 levels in tissues (ALD double knockout mice; liver, kidney, brain, heart, adrenal, four weeks): decrease | AUC [4]: 2330 µg·h/mL | Cmax [4]: 32700 ng/mL | Tmax [4]: 2 h | half-life [4]: 62.3 h | CL/F ([5]; single oral 10 mg, plasma, NCA): 8.509 mL/h | Ke ([5]; single oral 10 mg, plasma, NCA): 0.01113 h⁻¹ | V/F ([5]; single oral 10 mg, plasma, NCA): 764.7 mL | plasma C26:0 LPC ([5]; single oral dose 10 mg NA): does not significantly affect | plasma C26:0 levels ([5]; single oral dose 10 mg NA): does not significantly affect | solubility in dimethyl sulfoxide ([6]; dimethyl sulfoxide): approximately 20 mg/ml | solubility in dimethylformamide ([6]; dimethylformamide): approximately 20 mg/ml | solubility in ethanol ([6]; ethanol): approximately 10 mg/ml | inhibition of ELOVL1 (ELOVL1): competitively inhibit

CCCCCCCC/C=C\CCCCCCCCCCCC(=O)O [EA, erucic acid, reference compound]
cellular ATP content (energy production) at 20 μM ([3]; 20 μM, compared to vehicle-treated cells, five-day treatment): did not show a marked increase | cardiotoxicity [7]: associated with cardiotoxicity | C22:1 amount in brain (ALD double knockout mice; 3% EA diet, four weeks): did not show an elevation | C22:1 (EA) levels in liver, kidney, heart, and adrenal (ALD double knockout mice; compared to control group, 3% EA diet, four weeks): significant elevation | C26:0 in tissues, 3% NA group versus 3% EA group (ALD double knockout mice): no significant difference; also recorded: comparable | C22:1 (EA) level in plasma (ALD double knockout mice; only after 4-week treatment with 3% EA): significant increase
